Data on eight molecules can be found in PubChem BioAssay (NCI).

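Five compound concentrations were applied to cells in 96-well plates for 48 hours; endpoints were derived by simple linear interpolation of the resulting dose-response curve. GI50 marks 50% less growth. At the TGI there is no net growth.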

Some test systems named below: SK-MEL-2 melanoma; A498 renal; BT-549 breast; SF-295 CNS; SK-MEL-28 melanoma; HT29 colon; M14 melanoma; SF-268 CNS; MDA-MB-231 breast; RXF 393 renal.
Assay in all cases: NCI anticancer screen, dose series, 48 h

As to `COC(=O)/C=C/c1cc(OC(C)=O)c2c(c1)C(C(=O)OC)C(c1ccc(OC(C)=O)c(OC(C)=O)c1)O2` (stereo not given), the GI50 with SK-MEL-2 melanoma is 3.69 µM; with A498 renal, 0.948 µM; with BT-549 breast it was 0.127 µM; in the experiment with SF-295 CNS, 0.222 µM; in the experiment on SK-MEL-28 melanoma it was 0.905 µM; in the experiment with HT29 colon, 2.65 µM. Further, the GI50 in the experiment on M14 melanoma was 0.0411 µM; with SF-268 CNS, 0.617 µM; with MDA-MB-231 breast it was 0.442 µM; with RXF 393 renal, 0.167 µM. Besides, the TGI with SK-MEL-2 melanoma is > 100 µM; in the experiment with A498 renal, 5.58 µM; in the experiment with BT-549 breast, 2.27 µM; with SF-295 CNS, 14.1 µM; in the experiment on SK-MEL-28 melanoma, 59.7 µM; in the experiment on HT29 colon it was > 77.5 µM. In addition, the TGI in the experiment with M14 melanoma was 15.1 µM; in the experiment with SF-268 CNS it was > 100 µM; in the experiment with MDA-MB-231 breast it was > 21.3 µM; with RXF 393 renal it was 55.2 µM.

Regarding `COc1ccc(CNc2c3ccccc3nc3ccccc23)cc1F`, the GI50 in the experiment on SK-MEL-2 melanoma is 3.45 µM; with A498 renal, 1.98 µM; with BT-549 breast it was 4.88 µM; in the experiment on SF-295 CNS, 2.68 µM; with SK-MEL-28 melanoma, 3.84 µM; in the experiment on HT29 colon, 2.58 µM. Also, the GI50 was 1.79 µM in the experiment with M14 melanoma, 3.76 µM in the experiment on SF-268 CNS, 3.16 µM with MDA-MB-231 breast and 1.8 µM in the experiment with RXF 393 renal. For the same molecule, the TGI in the experiment with SK-MEL-2 melanoma came out at 13.4 µM; with A498 renal, 5.99 µM; in the experiment on BT-549 breast, 18.3 µM; in the experiment on SF-295 CNS, 10.4 µM; with SK-MEL-28 melanoma it was 13.9 µM; in the experiment on HT29 colon, 10.3 µM. For the same molecule, the TGI is 3.59 µM in the experiment on M14 melanoma, 15.1 µM in the experiment on SF-268 CNS, 10.7 µM in the experiment with MDA-MB-231 breast and 4.82 µM in the experiment on RXF 393 renal.

Take `NNc1ncnc2nc[nH]c12`: the GI50 with SK-MEL-2 melanoma is 9.27 µM; in the experiment on A498 renal, 5.41 µM; in the experiment with BT-549 breast, 4.22 µM; in the experiment with SF-295 CNS, 3.95 µM; in the experiment on SK-MEL-28 melanoma, 34.6 µM; in the experiment with HT29 colon, 4.36 µM. For the same molecule, the GI50 is 2.76 µM in the experiment on M14 melanoma, 8.24 µM in the experiment on SF-268 CNS, 2.92 µM in the experiment on MDA-MB-231 breast and 7.16 µM with RXF 393 renal. The TGI in the experiment on SK-MEL-2 melanoma was 97.4 µM; in the experiment with A498 renal, > 100 µM; in the experiment with BT-549 breast, > 94.3 µM; with SF-295 CNS, > 72.6 µM; in the experiment with SK-MEL-28 melanoma, > 100 µM; in the experiment with HT29 colon it was > 100 µM. Also, the TGI in the experiment on M14 melanoma is > 100 µM; with SF-268 CNS it was > 100 µM; in the experiment on MDA-MB-231 breast, 31.7 µM; in the experiment on RXF 393 renal, > 100 µM.

For the molecule `CCOC(=O)Nc1c(C)nc2ccccn12`, the GI50 in the experiment with SK-MEL-2 melanoma, with A498 renal, in the experiment on BT-549 breast, in the experiment with SF-295 CNS, in the experiment on SK-MEL-28 melanoma and with HT29 colon was > 100 µM in each case. The GI50 with M14 melanoma, in the experiment on SF-268 CNS, with MDA-MB-231 breast and in the experiment with RXF 393 renal was > 100 µM each time. Also, the TGI in the experiment with SK-MEL-2 melanoma, with A498 renal, with BT-549 breast, with SF-295 CNS, in the experiment on SK-MEL-28 melanoma and with HT29 colon was > 100 µM each time. For the same molecule, the TGI in the experiment with M14 melanoma, in the experiment on SF-268 CNS, in the experiment with MDA-MB-231 breast and with RXF 393 renal was > 100 µM throughout.

As to `CCSc1nc(N=Cc2ccccc2O)c2cn[nH]c2n1`, the GI50 was 39.9 µM with SK-MEL-2 melanoma; 4.61 µM in the experiment with A498 renal; 40.6 µM in the experiment on BT-549 breast; 23.9 µM in the experiment on SF-295 CNS; 33 µM with SK-MEL-28 melanoma; 30.7 µM in the experiment with HT29 colon. Besides, the GI50 is 17.4 µM in the experiment with M14 melanoma, 23.9 µM with SF-268 CNS, 12.7 µM in the experiment with MDA-MB-231 breast and 12.9 µM in the experiment with RXF 393 renal. In addition, the TGI in the experiment on SK-MEL-2 melanoma was > 100 µM; in the experiment on A498 renal it was 29.2 µM; in the experiment on BT-549 breast, > 100 µM; in the experiment with SF-295 CNS, 80.2 µM; in the experiment with SK-MEL-28 melanoma, > 100 µM; in the experiment on HT29 colon it was > 100 µM. For the same molecule, the TGI was 33 µM with M14 melanoma, 77.4 µM with SF-268 CNS, > 100 µM with MDA-MB-231 breast and 44.6 µM with RXF 393 renal.

Turning to `O=[N+]([O-])c1ccccc1N=Nc1c(O)[nH]c2c(Cl)cc(Cl)cc12`, the TGI was > 74.3 µM in the experiment on SK-MEL-2 melanoma; > 100 µM in the experiment with A498 renal; 30.5 µM in the experiment with BT-549 breast; > 61 µM in the experiment with SF-295 CNS; > 100 µM with SK-MEL-28 melanoma; > 100 µM with HT29 colon. Further, the TGI in the experiment on M14 melanoma is > 100 µM; with SF-268 CNS, > 100 µM; in the experiment with MDA-MB-231 breast it was > 69.3 µM; with RXF 393 renal, > 59.8 µM.

On to `CCN(CCNS(C)(=O)=O)c1ccc(N)c(C)c1`, for which the GI50 is 14.3 µM in the experiment with SK-MEL-2 melanoma; 12.6 µM in the experiment on A498 renal; 10.1 µM in the experiment with BT-549 breast; 16.7 µM in the experiment on SF-295 CNS; 13.4 µM with SK-MEL-28 melanoma; 6.16 µM in the experiment with HT29 colon. Further, the GI50 in the experiment on M14 melanoma was 10.9 µM; in the experiment on SF-268 CNS, 11.3 µM; with MDA-MB-231 breast it was 11.8 µM; in the experiment with RXF 393 renal, 2.71 µM. Besides, the TGI with SK-MEL-2 melanoma is 29.3 µM; in the experiment with A498 renal it was 55.2 µM; in the experiment on BT-549 breast it was 22.2 µM; with SF-295 CNS, 34.3 µM; in the experiment on SK-MEL-28 melanoma, 27.4 µM; in the experiment with HT29 colon, 28.7 µM. Also, the TGI stood at 26.4 µM with M14 melanoma, 24.2 µM in the experiment with SF-268 CNS, 25.4 µM in the experiment on MDA-MB-231 breast and 8.85 µM in the experiment with RXF 393 renal.

`N#CC(I)CS(=O)(=O)c1ccccc1` (stereo not given): the GI50 was 17.6 µM in the experiment with SK-MEL-2 melanoma; 35.4 µM in the experiment with A498 renal; 18.8 µM in the experiment on BT-549 breast; > 100 µM with SF-295 CNS; 16.6 µM in the experiment with SK-MEL-28 melanoma; 2 µM in the experiment with HT29 colon. In addition, the GI50 with M14 melanoma was 14.6 µM; with SF-268 CNS, 18.8 µM; with MDA-MB-231 breast, 17.3 µM; in the experiment with RXF 393 renal, 4.1 µM. Further, the TGI in the experiment with SK-MEL-2 melanoma was 33.2 µM; in the experiment with A498 renal, > 100 µM; in the experiment with BT-549 breast it was 32.9 µM; in the experiment on SF-295 CNS it was > 100 µM; with SK-MEL-28 melanoma, 30.7 µM; with HT29 colon, 4.51 µM. Further, the TGI with M14 melanoma came to 28.4 µM; with SF-268 CNS it was 35.2 µM; in the experiment on MDA-MB-231 breast, 33.9 µM; in the experiment on RXF 393 renal it was 13 µM.
